Values quoted from earlier work, collected in US20090023742A1, “THIAZOLONES FOR USE AS PI3 KINASE INHIBITORS” (priority 2006, published 2009).

System: Class I PI3-kinases
Settings: each of the four Class I PI3-kinases; read-out: IC50 values against each of the various Class I PI3-kinases

## wortmannin
  IC50: 1 to 10 nM
